In paper PMC9884426, “A phase 1 clinical trial of the repurposable acetyllysine mimetic, n-methyl-2-pyrrolidone (NMP), in relapsed or refractory multiple myeloma” (Clinical Epigenetics, 2023):

Experiments:
[1] = tested on: patients with relapsed/refractory multiple myeloma (RR–MM); assay: Phase 1 dose-escalation trial of oral NMP: safety, adverse events (CTCAE 4.03), DLT, MTD; format: in vivo
Description: This was a phase 1, open-label dose-escalation trial of orally administered NMP in patients with relapsed/refractory multiple myeloma (RR–MM). Eligible patients were ≥ 18 years old with Eastern Cooperative Oncology Group (ECOG) < 2 and histologically confirmed plasma cell myeloma defined by WHO 2008 criteria with measurable disease (defined by serum M-protein > 5 g/L, urine M-protein > 200 mg/24 h, involved serum free light chain > 100 mg/L or measurable soft tissue plasmacytoma). Patients were required to have relapsed following prior treatment and/or be refractory to or intolerant of both bortezomib and lenalidomide and must have undergone autologous stem cell transplant (unless deemed ineligible at investigator discretion). Exclusion criteria included: central nervous system involvement, active second malignancy within two years, uncontrolled medical conditions contraindicating an investigational agent due to inadequate organ function and concomitant exposure to anti-myeloma therapies.
The primary study endpoint was to determine the MTD of orally administered NMP in patients with RR–MM. Secondary endpoints included safety, PK analyses, IMWG defined response rate and exploratory immunological biomarkers. Adverse events were defined according to Common Terminology Criteria for Adverse Events (CTCAE version 4.03). Haematological DLTs were defined as grade 4 neutropenia unresponsive to G-CSF, grade 4 thrombocytopenia and febrile neutropenia. Non-haematological DLTs were grade 3 or higher and considered probably related to study drug and not attributable to disease progression and those resulting treatment delays greater than two weeks due to drug-related toxicity. Self-limited (< 24 h) gastrointestinal side effects (e.g. nausea, diarrhoea) responding to supportive measures were not classified as DLTs.
Pharmaceutical grade NMP stock solution (Ashland, Columbus, OH, USA) was diluted in ORA SWEET® SF (Medical Flavouring Systems, Vic, Australia) oral syrup vehicle and sterile water to a final concentration of 50 mg/mL and dispensed weekly in amber glass bottles for storage a room temperature. NMP was administered as a single morning dose on an empty stomach at least 30 min prior to food. Patients were dosed according to an ‘accelerated’ escalation schedule (one patient per dose level) in the absence of significant toxicity until a DLT was experienced and then in a 3 × 3 ‘standard’ dose-escalation phase. Intra-patient dose escalation at 100 mg increments was also permitted whereby the MTD had not been determined and the patient tolerated two consecutive cycles without DLT or an objective disease response. Treatment was administered daily for 28-day cycles until withdrawal from protocol due to toxicity or disease progression.

[2] = tested on: BET-bromodomains; design: method as in PMID 26047594, PMID 24813887; details: suppression of LPS-induced TNFα-secretion, downregulation of cMYC expression; cited from earlier work
[3] = tested on: Healthy human volunteers; design: method as in PMID 9029058, PMID 15458014; details: up to 100 mg orally and 300 mg transdermally; cited from earlier work

CN1CCCC1=O [NMP, N-methyl-2-pyrrolidone]
grade 5 AEs ([1]; 13 patients): no grade 5 AEs | Anaemia: Total ([1]; human, in vivo): 23% | Anaemia: Total (patients) ([1]; human, in vivo): 3 | Anaemia: worst grade 1 (patients) ([1]; human, in vivo): 0 | Anaemia: worst grade 2 (patients) ([1]; human, in vivo): 1 | Anaemia: worst grade 3 (patients) ([1]; human, in vivo): 2 | Anaemia: worst grade 4 (patients) ([1]; human, in vivo): 0 | Anorexia: Total ([1]; human, in vivo): 23% | Anorexia: Total (patients) ([1]; human, in vivo): 3 | Anorexia: worst grade 1 (patients) ([1]; human, in vivo): 0 | Anorexia: worst grade 2 (patients) ([1]; human, in vivo): 3 | Anorexia: worst grade 3 (patients) ([1]; human, in vivo): 0 | Anorexia: worst grade 4 (patients) ([1]; human, in vivo): 0 | Constipation: Total ([1]; human, in vivo): 15% | Constipation: Total (patients) ([1]; human, in vivo): 2 | Constipation: worst grade 1 (patients) ([1]; human, in vivo): 1 | Constipation: worst grade 2 (patients) ([1]; human, in vivo): 1 | Constipation: worst grade 3 (patients) ([1]; human, in vivo): 0 | Constipation: worst grade 4 (patients) ([1]; human, in vivo): 0 | Diarrhoea: Total ([1]; human, in vivo): 23% | Diarrhoea: Total (patients) ([1]; human, in vivo): 3 | Diarrhoea: worst grade 1 (patients) ([1]; human, in vivo): 2 | Diarrhoea: worst grade 2 (patients) ([1]; human, in vivo): 0 | Diarrhoea: worst grade 3 (patients) ([1]; human, in vivo): 1 | Diarrhoea: worst grade 4 (patients) ([1]; human, in vivo): 0 | Dizziness: Total ([1]; human, in vivo): 23% | Dizziness: Total (patients) ([1]; human, in vivo): 3 | Dizziness: worst grade 1 (patients) ([1]; human, in vivo): 2 | Dizziness: worst grade 2 (patients) ([1]; human, in vivo): 1 | Dizziness: worst grade 3 (patients) ([1]; human, in vivo): 0 | Dizziness: worst grade 4 (patients) ([1]; human, in vivo): 0 | Dysgeusia: Total ([1]; human, in vivo): 15% | Dysgeusia: Total (patients) ([1]; human, in vivo): 2 | Dysgeusia: worst grade 1 (patients) ([1]; human, in vivo): 2 | Dysgeusia: worst grade 2 (patients) ([1]; human, in vivo): 0 | Dysgeusia: worst grade 3 (patients) ([1]; human, in vivo): 0 | Dysgeusia: worst grade 4 (patients) ([1]; human, in vivo): 0 | Fatigue: Total ([1]; human, in vivo): 23% | Fatigue: Total (patients) ([1]; human, in vivo): 3 | Fatigue: worst grade 1 (patients) ([1]; human, in vivo): 3 | Fatigue: worst grade 2 (patients) ([1]; human, in vivo): 0 | Fatigue: worst grade 3 (patients) ([1]; human, in vivo): 0 | Fatigue: worst grade 4 (patients) ([1]; human, in vivo): 0 | Fever: Total ([1]; human, in vivo): 15% | Fever: Total (patients) ([1]; human, in vivo): 2 | Fever: worst grade 1 (patients) ([1]; human, in vivo): 0 | Fever: worst grade 2 (patients) ([1]; human, in vivo): 0 | Fever: worst grade 3 (patients) ([1]; human, in vivo): 1 | Fever: worst grade 4 (patients) ([1]; human, in vivo): 1 | Grade 3–4 adverse events, patients ([1]; human, in vivo): 54% | Musculoskeletal pain: Total ([1]; human, in vivo): 38% | Musculoskeletal pain: Total (patients) ([1]; human, in vivo): 5 | Musculoskeletal pain: worst grade 1 (patients) ([1]; human, in vivo): 2 | Musculoskeletal pain: worst grade 2 (patients) ([1]; human, in vivo): 3 | Musculoskeletal pain: worst grade 3 (patients) ([1]; human, in vivo): 0 | Musculoskeletal pain: worst grade 4 (patients) ([1]; human, in vivo): 0 | Nausea: Total ([1]; human, in vivo): 54% | Nausea: Total (patients) ([1]; human, in vivo): 7 | Nausea: worst grade 1 (patients) ([1]; human, in vivo): 1 | Nausea: worst grade 2 (patients) ([1]; human, in vivo): 6 | Nausea: worst grade 3 (patients) ([1]; human, in vivo): 0 | Nausea: worst grade 4 (patients) ([1]; human, in vivo): 0 | Neutrophil count decreased: Total (patients) ([1]; human, in vivo): 3 | Neutrophil count decreased: worst grade 1 (patients) ([1]; human, in vivo): 0 | Neutrophil count decreased: worst grade 2 (patients) ([1]; human, in vivo): 1 | Neutrophil count decreased: worst grade 3 (patients) ([1]; human, in vivo): 2 | Neutrophil count decreased: worst grade 4 (patients) ([1]; human, in vivo): 0 | Overall adverse events: Total ([1]; human, in vivo): 100% | Overall adverse events: Total (patients) ([1]; human, in vivo): 13 | Overall adverse events: worst grade 1 (patients) ([1]; human, in vivo): 1 | Overall adverse events: worst grade 2 (patients) ([1]; human, in vivo): 5 | Overall adverse events: worst grade 3 (patients) ([1]; human, in vivo): 6 | Overall adverse events: worst grade 4 (patients) ([1]; human, in vivo): 1 | Peripheral sensory neuropathy: Total ([1]; human, in vivo): 23% | Peripheral sensory neuropathy: Total (patients) ([1]; human, in vivo): 3 | Peripheral sensory neuropathy: worst grade 1 (patients) ([1]; human, in vivo): 0 | Peripheral sensory neuropathy: worst grade 2 (patients) ([1]; human, in vivo): 3 | Peripheral sensory neuropathy: worst grade 3 (patients) ([1]; human, in vivo): 0 | Peripheral sensory neuropathy: worst grade 4 (patients) ([1]; human, in vivo): 0 | Pruritus: Total ([1]; human, in vivo): 15% | Pruritus: Total (patients) ([1]; human, in vivo): 2 | Pruritus: worst grade 1 (patients) ([1]; human, in vivo): 2 | Pruritus: worst grade 2 (patients) ([1]; human, in vivo): 0 | Pruritus: worst grade 3 (patients) ([1]; human, in vivo): 0 | Pruritus: worst grade 4 (patients) ([1]; human, in vivo): 0 | Renal dysfunction: Total ([1]; human, in vivo): 15% | Renal dysfunction: Total (patients) ([1]; human, in vivo): 2 | Renal dysfunction: worst grade 1 (patients) ([1]; human, in vivo): 0 | Renal dysfunction: worst grade 2 (patients) ([1]; human, in vivo): 0 | Renal dysfunction: worst grade 3 (patients) ([1]; human, in vivo): 2 | Renal dysfunction: worst grade 4 (patients) ([1]; human, in vivo): 0 | Sore throat: Total ([1]; human, in vivo): 15% | Sore throat: Total (patients) ([1]; human, in vivo): 2 | Sore throat: worst grade 1 (patients) ([1]; human, in vivo): 2 | Sore throat: worst grade 2 (patients) ([1]; human, in vivo): 0 | Sore throat: worst grade 3 (patients) ([1]; human, in vivo): 0 | Sore throat: worst grade 4 (patients) ([1]; human, in vivo): 0 | URTI: Total ([1]; human, in vivo): 15% | URTI: Total (patients) ([1]; human, in vivo): 2 | URTI: worst grade 1 (patients) ([1]; human, in vivo): 0 | URTI: worst grade 2 (patients) ([1]; human, in vivo): 2 | URTI: worst grade 3 (patients) ([1]; human, in vivo): 0 | URTI: worst grade 4 (patients) ([1]; human, in vivo): 0 | overall DLT rate ([1]; human, in vivo): 8% | maximum tolerated dose (MTD) ([1]; human, in vivo, po): not defined | dose limiting toxicity (DLT) event ([1]; in vivo): diarrhoea | concentration at which NMP phenocopies effects of BET-inhibitors [2]: 1 to 10 mM | acute adverse effects after a single dose [3]: no acute adverse effects
